molecular target: T1, GST-hLGK1 (GK) (Homo sapiens, UniProt P35557); test: GK activation assay with GST-hLGK1 and Mant-ATP, capillary electrophoresis readout; type: biochemical; conditions: GST-hLGK1 6 μg/mL, 50 μM Mant-ATP, 25 mM D-glucose solution (10 μL) added, 37° C. for 60 min; concentration for 50% of the maximum activity value; read-out: EC50 of Exemplified Compounds against GK
T1 construct: GST (N); made in house
T1 sequence (P35557 1-464 isoform P35557-3): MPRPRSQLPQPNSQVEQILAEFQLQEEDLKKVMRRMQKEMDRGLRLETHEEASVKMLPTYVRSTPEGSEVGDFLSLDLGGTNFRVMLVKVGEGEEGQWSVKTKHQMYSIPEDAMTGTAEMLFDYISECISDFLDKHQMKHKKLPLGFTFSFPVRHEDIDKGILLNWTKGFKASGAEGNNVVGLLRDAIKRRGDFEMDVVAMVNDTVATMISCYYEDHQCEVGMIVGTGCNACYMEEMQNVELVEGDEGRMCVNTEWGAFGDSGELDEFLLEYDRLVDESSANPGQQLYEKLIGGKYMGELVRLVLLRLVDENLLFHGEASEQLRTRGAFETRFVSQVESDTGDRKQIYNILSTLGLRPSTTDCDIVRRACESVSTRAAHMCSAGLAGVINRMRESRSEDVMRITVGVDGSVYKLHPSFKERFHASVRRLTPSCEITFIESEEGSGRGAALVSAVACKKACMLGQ
Description: A 50% solution (5 μL) of the test compound in dimethyl sulfoxide was added to each well of a 384 well black plate (Nalge Nunc). Then, 35 μL of a liquid obtained by diluting GST-hLGK1 obtained in Reference Example 2A with a measurement buffer (50 mM HEPES (pH 7.4), containing 200 mM KCl, 5 mM MgCl2, 2.5 mM DTT and 50 μM 2′-(or-3′)—O—(N-methylanthraniloyl)adenosine 5′-triphosphate (Mant-ATP) (Jena Bioscience)) was added to each well to 6 μg/mL. Each well was maintained at 37° C. for 10 min, and a 25 mM D-glucose solution (10 μL) was added to start the reaction. After the start of the reaction, each well was allowed to stand at 37° C. for 60 min, before quenching the reaction by adding 25 μL of a reaction quenching solution (200 mM HEPES (pH 7.4), containing 20 mM MgCl2, 200 mM EDTA, 0.03% Triton-X 100, 0.3% Coating 3 reagent (Caliper Life Sciences)).
Mant-ATP (substrate) and Mant-ADP (reaction resultant product) were separated from each well after quenching the reaction, with a microchip type capillary electrophoresis apparatus 250HTS (Caliper Life Sciences). The reaction rate [(peak height of reaction resultant product)/(peak height of reaction resultant product+peak height of substrate)×100(%)] was calculated from the ratio of the substrate peak height and the reaction resultant product peak height, which were obtained by fluorescence detection (excitation wavelength 355 nm, measurement wavelength 460 nm), and used as an index of the GK activity.
For the control, the reaction rate was calculated in the same manner as above, except that a “50% dimethyl sulfoxide solution” was used instead of the “50% solution of the test compound in dimethyl sulfoxide”.
A percentage obtained by dividing the reaction rate of the well with the test compound (test compound addition group) by the reaction rate of the well with a 50% dimethyl sulfoxide solution alone (control group) was taken as the GK activation value by the test compound, and the concentration of the test compound necessary for the activation of 50% of the maximum activity value determined as an EC50 value.

SMILES | EC50 [nM]
Brc1ccc2[nH]nc(Nc3nccs3)c2c1 [Compound 7, 5-Bromo-N-1,3-thiazol-2-yl-1H-indazol-3-amine] | 5000
CC(=O)Nc1ccc2[nH]nc(Nc3nccs3)c2c1 [Compound 22, N-[3-(1,3-Thiazol-2-ylamino)-1H-indazol-5-yl]acetamide] | 15000
O=[N+]([O-])c1ccc2[nH]nc(Nc3nccs3)c2c1 [Compound 20, 5-Nitro-N-1,3-thiazol-2-yl-1H-indazol-3-amine] | 6600
CC(=O)c1ccc2[nH]nc(Nc3nccs3)c2c1 [Compound 25, 1-[3-(1,3-Thiazol-2-ylamino)-1H-indazol-5-yl]ethanone] | 8600

The next compounds have a lower EC50 than those just listed; values first:

EC50 [nM] | SMILES
1700 | CC(C)Oc1ccc2[nH]nc(Nc3nccs3)c2c1 [Compound 34, 5-Isopropoxy-N-1,3-thiazol-2-yl-1H-indazol-3-amine]
2900 | CC(C)c1ccc2[nH]nc(Nc3nccs3)c2c1 [Compound 33, 5-Isopropyl-N-1,3-thiazol-2-yl-1H-indazol-3-amine]
2500 | Cn1nc(Nc2nccs2)c2cc(C(F)(F)F)ccc21 [Compound 9, 1-Methyl-N-1,3-thiazol-2-yl-5-(trifluoromethyl)-1H-indazol-3-amine]
2400 | COCC(C)Oc1ccc2[nH]nc(Nc3nccs3)c2c1 (stereo not drawn) [Compound 35, 5-(2-Methoxy-1-methylethoxy)-N-1,3-thiazol-2-yl-1H-indazol-3-amine]
1200 | CC(C)Cc1ccc2[nH]nc(Nc3nccs3)c2c1 [Compound 29, 5-Isobutyl-N-1,3-thiazol-2-yl-1H-indazol-3-amine]

— US20070244169A1, “GLUCOKINASE ACTIVATORS” (priority 2005, published 2007)
